ChEMBL document CHEMBL1151292, “Antineoplastic activity and cytotoxicity of flavones, isoflavones, and flavanones” (1979)
Converted amounts (≈) assume the structure as drawn. The source made the active and inactive calls. No rule for the calls is given here.

Assays:
[1] = test system: CA-755; assay: In vivo antitumor activity against mouse CA-755 cells; assay type: functional, organism-based
[2] = test system: CCRF S-180; assay: In vivo antitumor activity against mouse S180 cells; assay type: functional, organism-based
[3] = test system: L1210; assay: In vivo antitumor activity against mouse L1210 cells; assay type: functional, organism-based
[4] = test system: KB; assay: Cytotoxicity against human KB cells; assay type: functional; settings: read-out: ED50 (the source's name)

Row | Structure (SMILES) | Activity [3] | EC50 [4] [µg/mL] | further results
1 | O=c1cc(-c2ccc(O)cc2)oc2ccccc12 | inactive | – | Activity [1]: inactive; Activity [2]: inactive
2 | COC1(c2ccccc2)Oc2ccccc2C(=O)C1(O)C[N+](=O)[O-] (stereo not given) | inactive | – | –
3 | COc1ccc(C2(OC)Oc3cc(OC)ccc3C(=O)C2(O)O)cc1 (stereo not given) | – | 2.8 (≈ 8.08 µM) | –
4 | COc1ccc(-c2oc3cc(O)cc(O)c3c(=O)c2O)cc1 [KAEMPFERIDE] | – | 20 (≈ 66.6 µM) | –
5 | COc1ccc(-c2oc3cc(CC=C(C)C)cc(O)c3c(=O)c2OC)cc1OC | inactive | – | –
6 | COc1ccc(-c2cc(=O)c3c(O)cc(C)cc3o2)cc1OC | inactive | – | –
7 | COc1ccc2c(=O)c(O)c(-c3ccc(OC)c(OC)c3)oc2c1 | inactive | – | –
8 | COc1ccc(-c2cc(=O)c3cc(OC)c(OC)cc3o2)cc1O | – | 2 (≈ 6.09 µM) | –
9 | COc1cc(O)c2c(c1)OC(c1ccc(O)cc1)CC2=O (stereo not given) | – | 13 (≈ 45.4 µM) | –
10 | COc1c(O)cc2oc(-c3ccc(O)cc3)cc(=O)c2c1O [HISPIDULIN] | – | 22 (≈ 73.3 µM) | –
11 | CC(=O)Oc1cc(OC(C)=O)c2c(=O)c(OC(C)=O)c(-c3ccc(OC(C)=O)c(OC(C)=O)c3)oc2c1 | inactive | – | –
12 | O=c1c(O)c(-c2ccc(O)c(O)c2)oc2cc(O[C@@H]3O[C@H](CO)[C@@H](O)[C@H](O)[C@H]3O)cc(O)c12 [QUERCIMERITRIN] | – | 28 (≈ 60.3 µM) | –
13 | COc1ccc(-c2oc3ccccc3c(=O)c2O)cc1OC | inactive | – | –
14 | O=c1cc(-c2ccccc2)oc2cc(F)ccc12 [7-FLUOROFLAVONE] | – | 22 (≈ 91.6 µM) | –
15 | Cc1ccc(-c2oc3ccccc3c(=O)c2O)cc1 | inactive | – | –
16 | CS(=O)(=O)Nc1c(-c2ccccc2)oc2ccccc2c1=O | – | 10 (≈ 31.7 µM) | Activity [2]: inactive
17 | COC1(c2ccccc2)Oc2ccccc2C(=O)C1(O)O (stereo not given) | – | 19 (≈ 66.4 µM) | –
18 | CCOc1ccc(-c2cc(=O)c3c(OC)c(OC)c(OC)c(OC)c3o2)cc1 | inactive | 30 (≈ 77.6 µM) | Activity [2]: inactive
19 | O=C1c2cc(Cl)ccc2OC(Cl)(c2ccc(Cl)cc2)C1Cl (stereo not given) | – | – | Activity [2]: inactive
20 | COc1cc(O)c2c(=O)cc(-c3ccc(OC)c(O)c3)oc2c1 | – | 19 (≈ 60.5 µM) | –
21 | CC(=O)c1c(O)cc(O)cc1-c1cc(=O)c2c(O)ccc(C(C)=O)c2o1 | inactive | – | –
22 | COc1ccc(-c2cc(=O)c3c(O)cccc3o2)cc1 | inactive | – | –
23 | COc1cc2oc(-c3ccc(O)cc3)c(O[C@@H]3O[C@@H](C)[C@H](O)[C@@H](O)[C@H]3O)c(=O)c2c(O)c1OC | inactive | – | –

Row | Structure (SMILES) | Activity [3] | EC50 [4] [µg/mL] | further results
24 | C[C@@H]1O[C@@H](OC[C@H]2O[C@@H](Oc3c(-c4ccc(O)c(O)c4)oc4c(O)cc(O)cc4c3=O)[C@H](O)[C@@H](O)[C@@H]2O)[C@H](O)[C@H](O)[C@H]1O | inactive | – | –
25 | COc1ccc(-c2cc(=O)c3c(C)cc(O)cc3o2)cc1OC | inactive | – | –
26 | COc1ccc(-c2oc3cc(O)c(O)c(O)c3c(=O)c2O)cc1OC | – | 27 (≈ 78 µM) | –
27 | COc1cc(OC)c2c(=O)c(O)c(-c3ccc(OC)c(OC)c3)oc2c1 | inactive | – | –
28 | O=c1cc(-c2ccc3c(c2)OCO3)oc2ccccc12 | inactive | – | –
29 | CS(=O)(=O)NC1C(=O)c2ccccc2OC1c1ccccc1 (stereo not given) | inactive | 10 (≈ 31.5 µM) | Activity [2]: inactive
30 | O=c1cc(-c2ccccc2)oc2c(O)c(O)cc(O)c12 | inactive | – | –
31 | O=c1c(Cl)c(-c2ccccc2O)oc2ccccc12 | – | 22 (≈ 80.7 µM) | –
32 | COc1cc(O)c(C2CC(=O)c3c(O)cc(O[C@@H]4O[C@H](CO[C@@H]5O[C@@H](C)[C@H](O)[C@@H](O)[C@H]5O)[C@@H](O)[C@H](O)[C@H]4O)cc3O2)cc1O (stereo not given in full) | inactive | > 100 | –
33 | O=c1cc(-c2cccc(O)c2)oc2ccccc12 | inactive | 8.5 (≈ 35.7 µM) | –
34 | COc1ccc2c(c1)OC(OC)(c1ccc(OC)c(OC)c1)C(O)(OC)C2=O (stereo not given) | inactive | – | –
35 | Cc1c(-c2ccccc2)oc2c(C(=O)OCCN3CCCCC3)cccc2c1=O.Cl [FLAVOXATE HYDROCHLORIDE] | inactive | > 100 | –
36 | COc1cc(-c2cc(=O)c3c(O)cc(C)cc3o2)cc(OC)c1OC | inactive | – | –
37 | COC1(O)C(=O)c2ccccc2OC1(OC)c1ccc(Cl)cc1 (stereo not given) | inactive | – | –
38 | Cc1c(O)cc2c(c1O)C(=O)CC(c1ccc(O)cc1)O2 (stereo not given) | inactive | 57 (≈ 199 µM) | –
39 | COc1cc(OC)c(-c2cc(=O)c3c(O)cc(O)cc3o2)c(OC)c1 | inactive | – | –
40 | COc1ccc(-c2coc3cc(O)cc(O)c3c2=O)cc1 | inactive | – | –
41 | COc1cc2c(=O)cc(-c3ccc(OC)c(OC)c3)oc2cc1O | – | 45 (≈ 137 µM) | –
42 | C[C@@H]1O[C@@H](OC[C@H]2O[C@@H](Oc3cc(O)c4c(c3)OC(c3ccc(O)cc3)CC4=O)[C@H](O)[C@@H](O)[C@@H]2O)[C@H](O)[C@H](O)[C@H]1O (stereo not given in full) | – | – | Activity [2]: inactive
43 | COc1cc(-c2cc(=O)c3ccc(O)c([C@@H]4O[C@H](CO)[C@@H](O)[C@H](O)[C@H]4O)c3o2)ccc1O | inactive | – | –
44 | COC1(O)C(=O)c2ccccc2OC1(OC)c1ccccc1 (stereo not given) | inactive | 34 (≈ 113 µM) | –
45 | COc1ccc2c(=O)c(O)c(-c3ccccc3)oc2c1 | – | 26 (≈ 96.9 µM) | –
46 | C[C@@H]1O[C@@H](OC[C@H]2O[C@@H](Oc3c(-c4ccc(O)c(O)c4)oc4cc(O)cc(O)c4c3=O)[C@H](O)[C@@H](O)[C@@H]2O)[C@H](O)[C@H](O)[C@H]1O [RUTIN] | – | 26 (≈ 42.6 µM) | –

Row | Structure (SMILES) | Activity [3] | EC50 [4] [µg/mL] | further results
47 | COc1ccc2c(c1)OC(OC)(c1ccccc1)C(O)(O)C2=O (stereo not given) | – | 20 (≈ 63.2 µM) | –
48 | CS(=O)(=O)Oc1cccc(-c2cc(=O)c3ccccc3o2)c1 | – | > 100 | –
49 | O=c1c(O)c(-c2ccccc2)oc2cc(O)cc(O)c12 [GALANGIN] | – | > 100 | –
50 | CC(=O)Oc1ccc2c(=O)c(-c3ccccc3)c(C)oc2c1 | inactive | – | –
51 | COc1cc(OC)c2c(=O)c(OC)c(-c3ccc(OC)c(OC)c3)oc2c1 | – | 25 (≈ 67.1 µM) | –
52 | COc1cc(O)c2c(=O)c(OC)c(-c3ccc(O)c(OC)c3)oc2c1 | inactive | – | –
53 | COc1ccc(C2Oc3ccccc3C(=O)C2N)cc1.Cl (stereo not given) | – | > 100 | Activity [2]: inactive
54 | COc1cc(OC)c(-c2cc(=O)c3ccccc3o2)cc1Br | – | – | Activity [1]: inactive; Activity [2]: inactive
55 | Cc1cc(C)c(-c2oc3ccc(Cl)cc3c(=O)c2Cl)c(C)c1 | – | > 100 | Activity [2]: Active
56 | COc1ccc(-c2cc(=O)c3ccc(O)cc3o2)cc1 | inactive | – | –
57 | Cc1ccc(-c2oc3ccc(Cl)cc3c(=O)c2Cl)c(C(C)C)c1 | – | 22 (≈ 63.4 µM) | –
58 | COc1ccc2c(=O)c(C)c(-c3ccccc3)oc2c1CN(C)C.Cl [DIMEFLINE HYDROCHLORIDE] | inactive | 22 | –
59 | C[C@@H]1O[C@@H](OC[C@H]2O[C@@H](Oc3c(-c4ccc(O)c(O)c4)oc4cc(O)cc(O)c4c3=O)[C@H](O)[C@@H](O)[C@@H]2O)[C@H](O)[C@H](O)[C@H]1O.Cl | – | > 100 | –
60 | COc1ccc(-c2oc3cc(O)cc(O)c3c(=O)c2OC)cc1OC | inactive | – | –
61 | COc1c(-c2ccc(O)c(O)c2)oc2cc(O)cc(O)c2c1=O [3-O-METHYLQUERCETIN] | – | 17 (≈ 53.8 µM) | –
62 | COc1ccc(-c2cc(=O)c3c(O)cc(O)cc3o2)cc1OC | inactive | – | –
63 | O=c1cc(-c2ccccc2)oc2c(F)cc(F)cc12 | inactive | 15 (≈ 58.1 µM) | Activity [2]: inactive
64 | COc1cc2c(c(O[C@@H]3O[C@H](CO)[C@@H](O)[C@H](O)[C@H]3O)c1)C(=O)CC(c1ccc(O)cc1)O2 (stereo not given in full) | – | > 100 | Activity [2]: inactive
65 | O=c1cc(-c2ccc(O)c(O)c2)oc2c([C@@H]3O[C@H](CO)[C@@H](O)[C@H](O)[C@H]3O)c(O)cc(O)c12 [ORIENTIN] | – | 25 (≈ 55.8 µM) | –
66 | O=C1C[C@@H](c2ccc(O)cc2)Oc2cc(O)cc(O)c21 | inactive | – | Activity [2]: inactive
67 | COc1cc(C2CC(=O)c3ccccc3O2)ccc1O (stereo not given) | inactive | – | Activity [2]: inactive
68 | COc1ccc(-c2cc(=O)c3c(C)cc(O)cc3o2)cc1 | inactive | – | –
69 | O=c1c(O)c(-c2cc(O)c(O)c(O)c2)oc2cc(O)ccc12 [ROBINETIN] | – | 25 (≈ 82.7 µM) | –

Row | Structure (SMILES) | Activity [3] | EC50 [4] [µg/mL] | further results
70 | O=c1cc(-c2ccc(O)cc2)oc2cc(O[C@@H]3O[C@H](CO)[C@@H](O)[C@H](O)[C@H]3O)cc(O)c12 [APIGETRIN] | – | > 100 | Activity [2]: inactive
71 | COc1cc(-c2cc(=O)c3c(C)cc(O)cc3o2)cc(OC)c1OC | inactive | – | –
72 | COc1cc(-c2cc(=O)c3c(O)cc(O)cc3o2)cc(OC)c1OC | inactive | – | –
73 | C=CCOc1ccc(-c2cc(=O)c3c(OC)c(OC)c(OC)c(OC)c3o2)cc1 | – | 26 (≈ 65.3 µM) | –
74 | O=C1C(=O)C(c2ccccc2)Oc2ccccc21 (stereo not given) | inactive | – | –
75 | COc1ccc(-c2oc3ccccc3c(=O)c2O)cc1 | inactive | – | –
76 | O=c1c(O)c(-c2ccc(Cl)cc2)oc2cc(O)ccc12 | inactive | – | Activity [2]: inactive
77 | O=c1c(Cl)c(-c2ccccc2)oc2ccc(Cl)cc12 | – | > 100 | –
78 | Cc1ccc(C(C)C)c(-c2oc3ccc(Cl)cc3c(=O)c2Cl)c1 | – | 60 (≈ 173 µM) | –
79 | COc1ccc(C2(OC)Oc3ccccc3C(=O)C2(O)OC)cc1OC (stereo not given) | inactive | – | –
80 | COc1cc2c(=O)cc(-c3ccc(O)c(O)c3)oc2cc1O | – | 18 (≈ 59.9 µM) | –
81 | Cc1ccc2oc(-c3ccccc3)c(Cl)c(=O)c2c1 | – | > 100 | –
82 | COc1cc(-c2cc(=O)c3ccc(O)cc3o2)cc(OC)c1OC | inactive | – | –
83 | O=C1c2ccccc2OC(c2ccccc2)C1Cl (stereo not given) | – | – | Activity [1]: inactive; Activity [2]: inactive
84 | O/N=c1/cc(-c2ccccc2)oc2ccccc12 | inactive | – | Activity [2]: inactive
85 | O=c1c(-c2ccccc2)coc2ccccc12 | inactive | – | –
86 | COc1ccc(-c2cc(=O)c3ccc(O)cc3o2)cc1OC | inactive | – | –
87 | COc1c(OC)c(OC)c2c(=O)cc(-c3ccc(OC(C)C)cc3)oc2c1OC | – | > 100 | –
88 | COc1ccc(-c2coc3cc(O)ccc3c2=O)cc1 | inactive | – | –
89 | C[C@@H]1O[C@@H](OC[C@H]2O[C@@H](Oc3ccc4c(=O)c(-c5ccc6c(c5)OCO6)coc4c3)[C@H](O)[C@@H](O)[C@@H]2O)[C@H](O)[C@@H](O)[C@H]1O | inactive | – | –
90 | COc1cc(C2Oc3cc(OC)c(OC)c(O)c3C(=O)C2OC)ccc1O (stereo not given) | inactive | – | –
